Measured values from US20200399262A1, “COMPOUNDS FOR INHIBITING PROTEIN DEGRADATION AND METHODS OF USE THEREOF IN THE TREATMENT OF CANCER” (PI Therapeutics Ltd, priority 2018, published 2020).
pEC50: −log10 of the molar value.

Tests used:
Assay in all cases: Cell viability panel, ATPlite 1Step
Assay type in all cases: cell-based
SUP-T1 = details: Homo sapiens, T lymphoblastic lymphoma, 72 h exposure, read-out: Compound EC50
Protocol: (§1) Cell viability panel studies. Cells were diluted in the corresponding ATCC recommended medium and dispensed in a 384-well plate, depending on the cell line used, at a density of 200-6400 cells per well. For each used cell line, the optimal cell density was used. Compound was serially diluted and 8 concentration (0.04-32 μM) were added to the cells for 72 h exposure. At t=end, of ATPlite 1Step™ (PerkinElmer) were used to calculate cell viability. Cell lines marked with asterisk were seeded 24 h prior to treatment in 96-well plates at the density range of 5,000-40,000 cells/well, according to duplication rate, in RPMI 1640 medium containing 10% fetal bovine serum and 2 mM L-glutamine. Compounds were diluted from 10 mM DMSO stock and treatment was applied at the range of 0.04-1 μM. Following incubation at 37° C. for 48 hours with increasing concentrations of the compounds, viability was determined with CyQUANT® Direct Assay Kit (Invitrogen). Output intensities were normalized to values after treatment with DMSO alone, and EC50 values were calculated using the absorbance measurements [time zero, (Tz), growth control, (C), plus the test growth at the four drug concentration levels (Ti)] as follows: [(Ti−Tz)/(C−Tz)]×100 for concentrations for which Ti>/=Tz; [(Ti−Tz)/Tz]×100 for concentrations for which Ti−<Tz.

U-118 MG = details: Homo sapiens, Astrocytoma, 72 h exposure, read-out: Compound EC50
Protocol: as §1

SW480 = details: Homo sapiens, Colon adenocarcinoma, 72 h exposure, read-out: Compound EC50
Protocol: as §1

MOLT-4 = details: Homo sapiens, T acute lymphoblastic leukemia, 72 h exposure, read-out: Compound EC50
Protocol: as §1

MCF7 = details: Homo sapiens, Invasive ductal carcinoma, 72 h exposure, read-out: Compound EC50
Protocol: as §1

MeWo = details: Homo sapiens, Melanoma, 72 h exposure, read-out: Compound EC50
Protocol: as §1

SW948 = details: Homo sapiens, Colon adenocarcinoma, 72 h exposure, read-out: Compound EC50
Protocol: as §1

HCT 116 = details: Homo sapiens, Colon carcinoma, 72 h exposure, read-out: Compound EC50
Protocol: as §1

K-562 = details: Homo sapiens, K562, Chronic myelogenous leukemia, 72 h exposure, read-out: Compound EC50
Protocol: as §1

Hs 766T = details: Hs766T, Pancreatic adenocarcinoma, 72 h exposure, read-out: Compound EC50
Protocol: as §1

NCCIT = details: Homo sapiens, Testicular embryonal carcinoma, 72 h exposure, read-out: Compound EC50
Protocol: as §1

RL95-2 = details: Homo sapiens, Endometrial adenosquamous carcinoma, 72 h exposure, read-out: Compound EC50
Protocol: as §1

PFSK-1 = details: Homo sapiens, Primitive neuroectodermal tumor, 72 h exposure, read-out: Compound EC50
Protocol: as §1

SK-N-AS = details: Homo sapiens, Neuroblastoma, 72 h exposure, read-out: Compound EC50
Protocol: as §1

SW837 = details: Homo sapiens, Rectal adenocarcinoma, 72 h exposure, read-out: Compound EC50
Protocol: as §1

SK-N-FI = details: Homo sapiens, Neuroblastoma, 72 h exposure, read-out: Compound EC50
Protocol: as §1

HCT-15 = details: Homo sapiens, Colon adenocarcinoma, 72 h exposure, read-out: Compound EC50
Protocol: as §1

SJCRH30 = details: Alveolar rhabdomyosarcoma, 72 h exposure, read-out: Compound EC50
Protocol: as §1

COLO 205 = details: Homo sapiens, Colon adenocarcinoma, 72 h exposure, read-out: Compound EC50
Protocol: as §1

RT4 = details: Homo sapiens, RT-4, Bladder carcinoma, 72 h exposure, read-out: Compound EC50
Protocol: as §1

KG-1 = details: Homo sapiens, Acute myeloid leukemia, 72 h exposure, read-out: Compound EC50
Protocol: as §1

SNU-C2B = details: Homo sapiens, Cecum adenocarcinoma, 72 h exposure, read-out: Compound EC50
Protocol: as §1

SHP-77 = details: Homo sapiens, SHP77, Small cell lung carcinoma, 72 h exposure, read-out: Compound EC50
Protocol: as §1

BT-20 = details: Homo sapiens, Invasive ductal carcinoma, 72 h exposure, read-out: Compound EC50
Protocol: as §1

NCI-H460 = details: Homo sapiens, Large cell lung carcinoma, 72 h exposure, read-out: Compound EC50
Protocol: as §1

T98G = details: Homo sapiens, Glioblastoma, 72 h exposure, read-out: Compound EC50
Protocol: as §1

NCI-H661 = details: Homo sapiens, Large cell lung carcinoma, 72 h exposure, read-out: Compound EC50
Protocol: as §1

786-O = details: Homo sapiens, 786-0, Renal cell carcinoma, 72 h exposure, read-out: Compound EC50
Protocol: as §1

SW900 = details: Homo sapiens, Squamous cell lung carcinoma, 72 h exposure, read-out: Compound EC50
Protocol: as §1

LNCaP FGC = details: Homo sapiens, Prostate carcinoma, 72 h exposure, read-out: Compound EC50
Protocol: as §1

Work on CN(C)CCCS(=O)(=O)N1C/C(=C\c2ccc(C#N)cc2)C(=O)/C(=C/c2ccc(C#N)cc2)C1 [Compound AA] yielded a pEC50 (SUP-T1) of over 6.52, a pEC50 (U-118 MG) of over 6.52 and a pEC50 (SW480) of over 6.52. The pEC50 (MOLT-4) was over 6.52, the pEC50 (MCF7) was at most 6.00 and the pEC50 (MeWo) was 6.00 to 6.52. It also gave a pEC50 (SW948) of over 6.52, a pEC50 (HCT 116) of over 6.52 and a pEC50 (K-562) of over 6.52. The pEC50 (Hs 766T) was 6.00 to 6.52, the pEC50 (NCCIT) was over 6.52 and the pEC50 (RL95-2) was over 6.52. The pEC50 (PFSK-1) was over 6.52, the pEC50 (SK-N-AS) was over 6.52 and the pEC50 (SW837) was 6.00 to 6.52. It also gave a pEC50 (SK-N-FI) of over 6.52, a pEC50 (HCT-15) of 6.00 to 6.52 and a pEC50 (SJCRH30) of over 6.52. For the same molecule, the pEC50 (COLO 205) was over 6.52, the pEC50 (RT4) was 6.00 to 6.52 and the pEC50 (KG-1) was over 6.52. The pEC50 (SNU-C2B) was 6.00 to 6.52, the pEC50 (SHP-77) was 6.00 to 6.52 and the pEC50 (BT-20) was at most 6.00. The pEC50 (NCI-H460) was over 6.52, the pEC50 (T98G) was 6.00 to 6.52 and the pEC50 (NCI-H661) was 6.00 to 6.52. For the same molecule, the pEC50 (786-O) was over 6.52, the pEC50 (SW900) was 6.00 to 6.52 and the pEC50 (LNCaP FGC) was 6.00 to 6.52.
